Tests used:
[1] = molecular target: Cyclin-dependent kinase-like 1 (Homo sapiens) (UniProt Q00532); assay: Inhibition of human recombinant CDKL1 at 40 nM in presence of ATP by radiometric assay relative to control
[2] = molecular target: Dual specificity protein kinase CLK1 (Homo sapiens) (UniProt P49759); assay: Inhibition of human recombinant CLK1 at 40 nM in presence of ATP by radiometric assay relative to control
[3] = molecular target: T1, Inhibitor of nuclear factor kappa-B kinase subunit epsilon (Homo sapiens) (UniProt Q14164); assay: Inhibition of human recombinant IKKe at 500 nM related to control ULK1
T1 sequence (whole entry): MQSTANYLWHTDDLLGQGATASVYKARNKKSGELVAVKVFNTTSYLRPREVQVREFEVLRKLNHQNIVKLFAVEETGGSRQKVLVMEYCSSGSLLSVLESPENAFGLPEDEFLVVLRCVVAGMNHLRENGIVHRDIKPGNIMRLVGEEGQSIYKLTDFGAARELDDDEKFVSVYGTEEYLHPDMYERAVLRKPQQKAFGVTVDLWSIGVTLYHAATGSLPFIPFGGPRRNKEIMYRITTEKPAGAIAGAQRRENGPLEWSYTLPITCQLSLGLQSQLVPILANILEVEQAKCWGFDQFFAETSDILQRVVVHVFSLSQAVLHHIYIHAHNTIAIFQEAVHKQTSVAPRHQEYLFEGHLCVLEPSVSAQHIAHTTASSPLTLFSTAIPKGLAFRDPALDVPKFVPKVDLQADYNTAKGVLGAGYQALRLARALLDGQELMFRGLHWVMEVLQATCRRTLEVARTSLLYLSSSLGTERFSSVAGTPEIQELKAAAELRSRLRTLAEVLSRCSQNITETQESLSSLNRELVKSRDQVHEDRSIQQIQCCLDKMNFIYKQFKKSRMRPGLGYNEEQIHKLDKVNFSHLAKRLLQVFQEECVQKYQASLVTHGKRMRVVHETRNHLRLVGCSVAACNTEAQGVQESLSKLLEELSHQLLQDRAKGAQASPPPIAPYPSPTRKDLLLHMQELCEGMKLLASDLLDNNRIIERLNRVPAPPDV

[4] = molecular target: Serine/threonine-protein kinase N2 (Homo sapiens) (UniProt Q16513); assay: Inhibition of human recombinant PKN2 at 500 nM in presence of ATP by radiometric assay relative to control
[5] = molecular target: Serine/threonine-protein kinase PAK 4 (Homo sapiens) (UniProt O96013); assay: Inhibition of human recombinant PAK4 at 500 nM related to control ULK1
[6] = molecular target: Serine/threonine-protein kinase PAK 2 (Homo sapiens) (UniProt Q13177); assay: Inhibition of human recombinant PAK2 at 500 nM in presence of ATP by radiometric assay relative to control
[7] = molecular target: T2, Serine/threonine-protein kinase Sgk1 (Homo sapiens) (UniProt O00141); assay: Inhibition of human recombinant SGK1 at 500 nM in presence of ATP by radiometric assay relative to control
T2 sequence (whole entry): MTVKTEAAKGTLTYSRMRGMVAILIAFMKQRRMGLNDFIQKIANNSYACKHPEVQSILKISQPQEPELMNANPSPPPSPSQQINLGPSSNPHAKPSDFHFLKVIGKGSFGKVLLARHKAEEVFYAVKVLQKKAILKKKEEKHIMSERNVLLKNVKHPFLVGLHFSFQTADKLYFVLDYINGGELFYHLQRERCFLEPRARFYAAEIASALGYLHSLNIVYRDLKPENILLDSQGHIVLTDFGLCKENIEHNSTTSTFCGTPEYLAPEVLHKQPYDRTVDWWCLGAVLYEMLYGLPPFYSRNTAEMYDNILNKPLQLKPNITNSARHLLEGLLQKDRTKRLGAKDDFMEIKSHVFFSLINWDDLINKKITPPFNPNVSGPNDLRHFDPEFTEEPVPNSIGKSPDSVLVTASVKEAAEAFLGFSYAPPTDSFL

[8] = molecular target: Mitogen-activated protein kinase kinase kinase 20 (Homo sapiens) (UniProt Q9NYL2); assay: Inhibition of human recombinant ZAK at 15 nM related to control ULK1
[9] = molecular target: Homeodomain-interacting protein kinase 2 (Homo sapiens) (UniProt Q9H2X6); assay: Inhibition of human recombinant HIPK2 at 15 nM related to control ULK1
[10] = molecular target: T3, Serine/threonine-protein kinase NLK (Homo sapiens) (UniProt Q9UBE8); assay: Inhibition of human recombinant NLK at 15 nM in presence of ATP by radiometric assay relative to control
T3 sequence (whole entry): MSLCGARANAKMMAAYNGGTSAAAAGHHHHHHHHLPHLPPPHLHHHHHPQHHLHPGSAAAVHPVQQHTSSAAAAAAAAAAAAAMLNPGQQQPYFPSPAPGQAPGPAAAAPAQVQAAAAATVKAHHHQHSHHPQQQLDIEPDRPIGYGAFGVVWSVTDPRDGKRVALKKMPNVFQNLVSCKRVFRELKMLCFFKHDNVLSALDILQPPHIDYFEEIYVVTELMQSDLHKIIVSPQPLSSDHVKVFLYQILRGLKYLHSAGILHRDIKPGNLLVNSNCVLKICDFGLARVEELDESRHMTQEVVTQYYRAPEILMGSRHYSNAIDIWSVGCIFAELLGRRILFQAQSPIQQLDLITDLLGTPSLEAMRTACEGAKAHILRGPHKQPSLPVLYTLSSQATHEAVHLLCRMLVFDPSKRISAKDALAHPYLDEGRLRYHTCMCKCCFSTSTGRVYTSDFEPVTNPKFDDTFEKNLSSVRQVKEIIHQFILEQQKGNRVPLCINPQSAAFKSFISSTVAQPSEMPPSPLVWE

[11] = molecular target: Protein kinase C alpha type (Homo sapiens) (UniProt P17252); assay: Inhibition of human recombinant PKCa at 15 nM related to control ULK1
[12] = molecular target: Serine/threonine-protein kinase NIM1 (Homo sapiens) (UniProt Q8IY84); assay: Inhibition of human recombinant NIM1 at 15 nM in presence of ATP by radiometric assay relative to control
[13] = molecular target: Serine/threonine-protein kinase Chk2 (Homo sapiens) (UniProt O96017); assay: Inhibition of human recombinant CHK2 at 15 nM in presence of ATP by radiometric assay relative to control
[14] = molecular target: G protein-coupled receptor kinase 5 (Homo sapiens) (UniProt P34947); assay: Inhibition of human recombinant GPRK5 at 15 nM in presence of ATP by radiometric assay relative to control
G protein-coupled receptor kinase 5 (Homo sapiens), sequence (P34947 whole entry, looked up): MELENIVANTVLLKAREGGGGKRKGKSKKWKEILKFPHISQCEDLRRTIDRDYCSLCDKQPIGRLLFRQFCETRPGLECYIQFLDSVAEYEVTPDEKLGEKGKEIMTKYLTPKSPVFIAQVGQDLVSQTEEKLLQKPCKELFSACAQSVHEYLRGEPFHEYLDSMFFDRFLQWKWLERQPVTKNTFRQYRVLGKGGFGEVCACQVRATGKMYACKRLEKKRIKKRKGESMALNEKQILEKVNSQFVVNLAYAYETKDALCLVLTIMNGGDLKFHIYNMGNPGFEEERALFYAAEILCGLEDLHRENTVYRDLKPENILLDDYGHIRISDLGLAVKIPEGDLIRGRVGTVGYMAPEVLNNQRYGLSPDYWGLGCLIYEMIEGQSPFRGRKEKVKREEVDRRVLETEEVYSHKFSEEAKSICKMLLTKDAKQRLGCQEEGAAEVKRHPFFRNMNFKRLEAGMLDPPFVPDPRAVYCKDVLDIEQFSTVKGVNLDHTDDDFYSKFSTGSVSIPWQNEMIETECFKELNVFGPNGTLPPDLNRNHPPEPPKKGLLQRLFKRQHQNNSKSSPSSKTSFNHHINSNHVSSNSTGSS

Serine/threonine-protein kinase PAK 4 (Homo sapiens), sequence (O96013 whole entry, looked up): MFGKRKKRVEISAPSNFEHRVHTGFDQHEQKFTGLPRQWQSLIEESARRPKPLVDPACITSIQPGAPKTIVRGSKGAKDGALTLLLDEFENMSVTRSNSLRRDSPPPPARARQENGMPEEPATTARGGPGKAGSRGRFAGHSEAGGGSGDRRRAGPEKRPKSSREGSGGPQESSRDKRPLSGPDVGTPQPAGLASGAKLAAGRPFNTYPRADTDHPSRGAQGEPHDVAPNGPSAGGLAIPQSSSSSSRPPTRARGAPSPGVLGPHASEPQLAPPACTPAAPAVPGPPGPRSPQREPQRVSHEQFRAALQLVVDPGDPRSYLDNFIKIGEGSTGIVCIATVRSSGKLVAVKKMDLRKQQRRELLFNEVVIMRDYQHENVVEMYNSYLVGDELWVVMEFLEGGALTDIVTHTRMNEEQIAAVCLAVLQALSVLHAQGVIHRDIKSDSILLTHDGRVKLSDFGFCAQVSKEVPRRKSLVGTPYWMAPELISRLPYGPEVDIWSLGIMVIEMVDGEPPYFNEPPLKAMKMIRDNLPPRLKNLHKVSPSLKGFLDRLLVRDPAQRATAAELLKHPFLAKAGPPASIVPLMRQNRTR
Cyclin-dependent kinase-like 1 (Homo sapiens), sequence (Q00532 whole entry): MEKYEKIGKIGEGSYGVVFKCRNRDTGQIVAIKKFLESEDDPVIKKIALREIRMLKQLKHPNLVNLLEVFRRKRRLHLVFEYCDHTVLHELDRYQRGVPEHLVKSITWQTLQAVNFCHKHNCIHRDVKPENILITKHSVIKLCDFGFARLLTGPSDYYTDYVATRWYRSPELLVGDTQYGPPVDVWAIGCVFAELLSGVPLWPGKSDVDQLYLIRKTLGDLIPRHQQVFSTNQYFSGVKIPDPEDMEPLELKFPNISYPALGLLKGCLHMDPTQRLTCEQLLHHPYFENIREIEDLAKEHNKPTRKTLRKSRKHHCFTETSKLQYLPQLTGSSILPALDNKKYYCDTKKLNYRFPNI
Serine/threonine-protein kinase NIM1 (Homo sapiens), sequence (Q8IY84 whole entry): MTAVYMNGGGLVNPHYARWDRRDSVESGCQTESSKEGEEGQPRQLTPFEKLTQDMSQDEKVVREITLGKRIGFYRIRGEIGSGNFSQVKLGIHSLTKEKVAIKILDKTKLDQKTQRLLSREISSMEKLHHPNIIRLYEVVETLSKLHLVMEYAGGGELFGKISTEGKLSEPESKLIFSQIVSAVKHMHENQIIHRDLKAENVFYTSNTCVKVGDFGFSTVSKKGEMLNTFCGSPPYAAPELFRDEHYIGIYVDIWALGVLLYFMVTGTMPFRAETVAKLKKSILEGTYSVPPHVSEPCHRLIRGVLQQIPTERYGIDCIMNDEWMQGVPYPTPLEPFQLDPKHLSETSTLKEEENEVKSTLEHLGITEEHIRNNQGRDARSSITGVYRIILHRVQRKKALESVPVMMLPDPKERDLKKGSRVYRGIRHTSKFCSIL
Serine/threonine-protein kinase Chk2 (Homo sapiens), sequence (O96017 whole entry): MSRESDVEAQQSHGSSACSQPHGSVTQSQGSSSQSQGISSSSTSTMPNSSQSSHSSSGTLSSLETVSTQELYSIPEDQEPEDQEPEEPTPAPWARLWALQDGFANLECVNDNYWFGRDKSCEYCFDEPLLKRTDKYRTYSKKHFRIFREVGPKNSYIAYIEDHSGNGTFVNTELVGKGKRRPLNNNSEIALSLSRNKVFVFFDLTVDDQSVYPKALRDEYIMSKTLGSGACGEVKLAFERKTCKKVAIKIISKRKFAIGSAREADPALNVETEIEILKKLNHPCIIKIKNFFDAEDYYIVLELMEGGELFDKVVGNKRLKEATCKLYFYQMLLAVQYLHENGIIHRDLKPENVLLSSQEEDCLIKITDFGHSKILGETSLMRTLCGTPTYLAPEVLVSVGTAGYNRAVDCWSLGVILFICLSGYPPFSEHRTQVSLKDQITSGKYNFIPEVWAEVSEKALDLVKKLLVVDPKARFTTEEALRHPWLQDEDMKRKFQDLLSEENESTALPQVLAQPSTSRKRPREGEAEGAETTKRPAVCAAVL
Homeodomain-interacting protein kinase 2 (Homo sapiens), sequence (Q9H2X6 whole entry, looked up): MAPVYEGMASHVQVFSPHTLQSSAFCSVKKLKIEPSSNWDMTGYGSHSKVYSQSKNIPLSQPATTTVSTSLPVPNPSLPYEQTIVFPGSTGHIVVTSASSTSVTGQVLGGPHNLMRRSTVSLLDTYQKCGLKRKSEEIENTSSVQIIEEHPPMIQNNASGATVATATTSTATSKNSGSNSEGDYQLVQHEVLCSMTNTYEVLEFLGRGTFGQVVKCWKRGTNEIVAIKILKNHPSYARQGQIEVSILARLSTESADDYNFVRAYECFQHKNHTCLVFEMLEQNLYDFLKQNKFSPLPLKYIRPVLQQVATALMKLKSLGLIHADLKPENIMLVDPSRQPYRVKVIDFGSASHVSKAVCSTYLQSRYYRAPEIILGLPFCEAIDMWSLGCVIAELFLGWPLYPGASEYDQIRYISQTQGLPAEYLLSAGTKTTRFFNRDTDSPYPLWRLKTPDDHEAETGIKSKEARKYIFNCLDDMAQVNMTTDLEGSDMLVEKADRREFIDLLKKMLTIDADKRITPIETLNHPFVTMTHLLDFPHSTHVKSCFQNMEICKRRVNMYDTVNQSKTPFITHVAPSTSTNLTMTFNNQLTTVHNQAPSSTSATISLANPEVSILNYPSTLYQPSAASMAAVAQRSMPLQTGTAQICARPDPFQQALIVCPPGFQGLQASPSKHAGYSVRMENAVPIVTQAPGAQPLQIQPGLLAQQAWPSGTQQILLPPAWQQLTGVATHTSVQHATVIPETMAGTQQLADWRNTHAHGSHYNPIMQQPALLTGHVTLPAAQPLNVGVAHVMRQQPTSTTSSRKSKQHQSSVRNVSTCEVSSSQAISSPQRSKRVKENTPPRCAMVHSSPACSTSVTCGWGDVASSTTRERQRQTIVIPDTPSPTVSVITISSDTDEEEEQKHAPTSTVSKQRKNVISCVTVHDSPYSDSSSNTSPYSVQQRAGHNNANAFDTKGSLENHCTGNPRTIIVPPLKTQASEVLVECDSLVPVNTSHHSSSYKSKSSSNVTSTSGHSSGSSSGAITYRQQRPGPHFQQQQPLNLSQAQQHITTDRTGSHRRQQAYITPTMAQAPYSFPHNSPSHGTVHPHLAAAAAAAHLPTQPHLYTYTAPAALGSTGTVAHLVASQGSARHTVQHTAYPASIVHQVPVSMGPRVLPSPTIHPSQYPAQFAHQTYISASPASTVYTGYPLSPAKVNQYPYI
Dual specificity protein kinase CLK1 (Homo sapiens), sequence (P49759 whole entry, looked up): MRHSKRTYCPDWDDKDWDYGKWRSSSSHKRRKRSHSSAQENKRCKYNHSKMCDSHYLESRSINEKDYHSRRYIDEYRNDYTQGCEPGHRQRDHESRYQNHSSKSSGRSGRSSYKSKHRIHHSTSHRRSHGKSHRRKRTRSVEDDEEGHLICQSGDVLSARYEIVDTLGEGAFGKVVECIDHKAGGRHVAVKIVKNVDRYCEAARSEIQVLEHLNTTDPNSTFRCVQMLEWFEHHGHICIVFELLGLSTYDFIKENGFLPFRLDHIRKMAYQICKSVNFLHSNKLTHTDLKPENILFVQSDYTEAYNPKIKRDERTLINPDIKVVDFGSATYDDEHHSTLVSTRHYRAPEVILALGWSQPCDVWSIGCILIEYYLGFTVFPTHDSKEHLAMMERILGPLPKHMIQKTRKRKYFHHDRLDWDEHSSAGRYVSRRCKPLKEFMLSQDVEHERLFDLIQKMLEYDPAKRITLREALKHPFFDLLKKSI

For `O=C(N[C@@H](C1CC1)C(F)(F)F)c1cc(-c2cnn3cc(-c4ccc(F)cc4)cnc23)cs1`, the inhibition [1] was 15% and the inhibition [2] was 34%.
For `CNC(=O)c1ccccc1Oc1nc(Nc2cc(OC)c(OC)c(OC)c2)ncc1Br`, the fold change (FC) [3] was 0, the inhibition [4] was 0% and the fold change (FC) [5] was 0.55. It also gave an inhibition [6] of 14% and an inhibition [7] of 2%.
`CC(C)[C@H](NC(=O)c1cc(-c2cnn3cc(-c4ccc(OCCN5CCCCC5)cc4)cnc23)cs1)C(F)(F)F` gave a fold change (FC) [8] of 0.3, a fold change (FC) [9] of 0.03 and an inhibition [10] of 9%. For the same compound, the fold change (FC) [11] was 0.08, the inhibition [12] was 6% and the inhibition [13] was 0%. For the same compound, the inhibition [14] was 0%.

From ChEMBL document CHEMBL5653631, “A Potent and Selective ULK1 Inhibitor Suppresses Autophagy and Sensitizes Cancer Cells to Nutrient Stress” (iScience, 2018)
